Data on 3 molecules can be found in patent US20230293560A1, “METHOD FOR MODULATING THE BLADDER MICROBIOME TO IMPROVE BLADDER HEALTH” (Kimberly-Clark Worldwide, Inc., priority 2020, published 2023).

Where “and” joins values, the source holds several entries; their conditions need not be identical. Equal entries are not always repeated.

Assay [1] deals with E. faecalis. The assay can be described thus: High throughput assay screening of prebiotics. It counts as cell-based, Enterococcus faecalis. Also on record: key: ++: if growth and fermentation was equal to or greater than the positive control; +: if growth and fermentation was less than the positive control; +: if weak or no growth or fermentation; +^2: Bacteria demonstrated growth but no fermentation on the prebiotic. The settings on record: 2% w/v prebiotic in API 50 CHL media; for growth and fermentation vs positive control, Ef-1: E. faecalis ATCC BAA-2128, Culture Collection; for growth and fermentation vs positive control, Ef-2: E. faecalis KC16-7171-3, Bladder; for growth and fermentation vs positive control, Ef-3: E. faecalis KC17-3969-2B, Bladder; for growth and fermentation vs positive control, Ef-4: E. faecalis KC17-4331-3, Bladder. As for the experimental part:
(§1) Most of the prebiotic compounds were initially tested in a high throughput assay screening process, described further in the Test Methods section herein, but three prebiotics (as noted in Table 3) were tested using a plate assay screening process as described in the Test Methods section herein. The prebiotics were tested against the commensal bacterial species of Lactobacillus crispatus, Lactobacillus gasseri, and Lactobacillus jensenii and against the pathogenic bacterial species of Streptococcus anginosus and Enterococcus faecalis as shown in Table 2. The bacterial species were taken from different sources, listed as culture collection, bladder, and vagina.
(§2) The results of the assay plate screening of the prebiotic compounds of Table 1 against the bacterial species of Table 2 is documented in Table 3 with the results being described by the following legend: • ++ if growth and fermentation was equal to or greater than the positive control • + if growth and fermentation was less than the positive control • […] if weak or no growth or fermentation • NT if not tested Some codes were not tested based on the use or non-use by the bacteria, as a way to efficiently move through the assay plate screening to the competition assay, described below.
(§3) • 1. Create a 2% w/v stock of prebiotic or positive control (glucose/dextrose) to be tested in API 50 CHL media (Biomerieux, Marcy-I'Étoile, France). API 50 CHL media contains minimal amounts of carbon for growth, and a bromocresol purple as a pH indicator of fermentation. Filter sterilize media with a […]. Store at 4-6° C. until use. • 2. Add 180 μL of media containing the prebiotic to a sterile, flat bottom 96-well microtiter plate (Corning, Corning, NY). • 3. From a freezer stock subculture the bacteria twice into De Man, Rogosa and Sharpe (MRS) broth (BD Difco, Becton Dickinson, Franklin Lakes, NJ), 37° C., stationary, anaerobic, overnight. • 4. From the last subculture, plate onto an MRS agar plate (Teknova, Hollister, CA) and grow 37° C., stationary, anaerobic, overnight. • 5. Create a bacterial suspension by using a sterile tipped swab to transfer colonies of bacteria into a PBS suspension blank to a 0.5 MacFarland (S. anginosus or E. faecalis) or a 1 MacFarland (Lactobacillus species) from the MRS agar plate. • 6. Enumerate the starting culture. • 7. Inoculate the media alone and media containing the prebiotic or positive control with 20 μL of the bacterial suspension. • 8. Place the plate into a spectrophotometer (Molecular Devices, San Jose, CA) and read the plate every 20 minutes for 24-48 hours. Read wavelengths (OD 430, OD 590, and OD 660). A color change to yellow caused by a drop in pH will be read by an increase in the OD430 value and a decrease in the OD590 value and is indicative of bacterial fermentation. An increase in OD660 values is indicative of an increase in turbidity and bacterial growth.

Assay [2] has as its system L. crispatus. Description: High throughput assay screening of prebiotics. It counts as cell-based, Lactobacillus crispatus. Details: key: ++: if growth and fermentation was equal to or greater than the positive control; +: if growth and fermentation was less than the positive control; +: if weak or no growth or fermentation; +^2: Bacteria demonstrated growth but no fermentation on the prebiotic. The settings on record: 2% w/v prebiotic in API 50 CHL media. The procedure:
as §1, §2, §3

Assay [3] relates to S. anginosus. Description: High throughput assay screening of prebiotics. It counts as cell-based, Streptococcus anginosus. Details: key: ++: if growth and fermentation was equal to or greater than the positive control; +: if growth and fermentation was less than the positive control; +: if weak or no growth or fermentation; +^2: Bacteria demonstrated growth but no fermentation on the prebiotic. The settings on record: 2% w/v prebiotic in API 50 CHL media; for growth and fermentation vs positive control, Sa-2: S. anginosus KC18-1131-3B, Bladder. The procedure:
as §1, §2, §3

For assay [4], the system named is L. gasseri. The assay can be described thus: High throughput assay screening of prebiotics. Also on record: key: ++: if growth and fermentation was equal to or greater than the positive control; +: if growth and fermentation was less than the positive control; +: if weak or no growth or fermentation; +^2: Bacteria demonstrated growth but no fermentation on the prebiotic. It counts as cell-based, Lactobacillus gasseri. The settings on record: 2% w/v prebiotic in API 50 CHL media; for growth and fermentation vs positive control, Lg-1: L. gasseri KC16-7135-1, Bladder. As for the experimental part: as §1, §2, §3

The subject of assay [5] is L. jensenii. The assay can be described thus: High throughput assay screening of prebiotics. It counts as cell-based, Lactobacillus jensenii. Also on record: key: ++: if growth and fermentation was equal to or greater than the positive control; +: if growth and fermentation was less than the positive control; +: if weak or no growth or fermentation; +^2: Bacteria demonstrated growth but no fermentation on the prebiotic. The settings on record: 2% w/v prebiotic in API 50 CHL media. The procedure: as §1, §2, §3

Assay [6] has as its system commensal and pathogenic bacterial species. The assay can be described thus: Prebiotic screening, summary in words across species. It is filed as cell-based. As to conditions: for overall outcome of the screening of Table 3, in words: commensal (L. crispatus, L. gasseri, L. jensenii) and pathogenic (S. anginosus, E. faecalis) species. As for the experimental part: as §1, §2, §3
• 1. An in house bacterial agar was created based on MRS agar (Kaplan and Hutkins, 2000) where the glucose is substituted for the prebiotic to be tested (either dextran MW ˜6,000, alpha-cyclodextrin, glucomannan, or pectin), bromocresol purple was included as a pH indicator. • 2. Bacteria were enumerated on each agar and color changes were recorded. Method for Competition Assay (Modified from “In Vitro Evaluation of Nutrients that Selectively Confer a Competitive Advantage to Lactobacilli” Vongsa et al, Beneficial Microbes 2016) • 1. Create 2% w/v stock of prebiotic or positive control (glucose/dextrose) as described above. • 2. From a freezer stock subculture the bacteria twice into De Man, Rogosa and Sharpe (MRS) broth (BD Difco, Becton Dickinson, Franklin Lakes, NJ), 37° C., stationary, anaerobic, overnight. • 3. From the last subculture, plate onto an MRS agar plate for L. crispatus KC18-1173-1 or blood agar for S. anginosus KC18-1131-3B, grow 37° C., stationary, anaerobic, overnight. • 4. […]

In assay [7] the test system is S. anginosus, KC18-1131-3B, Bladder (Sa-2). It is filed as cell-based. The settings on record: Table 6, prebiotic 2%, one line per replicate. The procedure:
(§4) Further testing was conducted to put the prebiotic compounds in competition assay testing, as further described in the test methods section herein. In the competition assay testing, each competition involved testing a single prebiotic compound with the commensal bacteria species of L. crispatus, KC18-1173-1, Bladder (“Lc-3”—Table 2) against the pathogenic bacterial species of S. anginosus, KC18-1131-3B, Bladder (“Sa-2”—Table 2).
(§5) • 1. An in house bacterial agar was created based on MRS agar (Kaplan and Hutkins, 2000) where the glucose is substituted for the prebiotic to be tested (either dextran MW ˜6,000, alpha-cyclodextrin, glucomannan, or pectin), bromocresol purple was included as a pH indicator. • 2. Bacteria were enumerated on each agar and color changes were recorded. Method for Competition Assay (Modified from “In Vitro Evaluation of Nutrients that Selectively Confer a Competitive Advantage to Lactobacilli” Vongsa et al, Beneficial Microbes 2016) • 1. Create 2% w/v stock of prebiotic or positive control (glucose/dextrose) as described above. • 2. From a freezer stock subculture the bacteria twice into De Man, Rogosa and Sharpe (MRS) broth (BD Difco, Becton Dickinson, Franklin Lakes, NJ), 37° C., stationary, anaerobic, overnight. • 3. From the last subculture, plate onto an MRS agar plate for L. crispatus KC18-1173-1 or blood agar for S. anginosus KC18-1131-3B, grow 37° C., stationary, anaerobic, overnight. • 4. Create a bacterial suspension by using a sterile tipped swab to transfer colonies of bacteria into a PBS suspension blank to a 2 MacFarland for both species. • 5. Enumerate the starting culture. • 6. Add 9.8 mL of prebiotic media into a 15 mL conical tube. • 7. Add 100 μL of the diluted bacteria to the media, incubate at 37° C., anaerobic, 48 hours. • 8. Harvest 100 μL from the tube containing the prebiotic and plate onto MRS agar and tryptic soy agar (TSA). • 9. Enumerate the bacteria on the MRS agar (both the L. crispatus and the S. anginosus). Small colonies are counted as S. anginosus and large colonies are counted as L. crispatus. • 10. Enumerate the bacteria on the TSA plate. […] Growth of the bacteria in the negative control (CHL media without prebiotic) was subtracted from the growth in the presence of the prebiotic or formulation.

The subject of assay [8] is L. crispatus, KC18-1173-1, Bladder (Lc-3). Description: Competition assay, L. crispatus recovered. As to conditions: Table 6, prebiotic 2%, one line per replicate. It counts as cell-based, Lactobacillus crispatus. The procedure: as §4, §5
The subject of assay [9] is ratio of L. crispatus/S. anginosus. Description: Therapeutic effect protocol (competition assay). It is filed as cell-based, Lactobacillus crispatus; Streptococcus anginosus. The settings on record: Table 6; prebiotic 2%; Lc-3 vs Sa-2.
From the text: As used herein, the term “therapeutic effect” refers to the ability of the compositions and formulations of the present disclosure to stimulate the growth of L. crispatus relative S. anginosus measured according to the therapeutic effect protocol described below. The therapeutic effect can be expressed as a ratio of L. crispatus to S. anginosus and is desirably greater than about 100, more preferably greater than about 500 and more desirably greater than about 1,000.
as §4, §5
Colonies of L. crispatus and S. anginosus were tested against in the competition method assay test method as described above. The therapeutic effect was calculated by comparing the colony forming units recovered after the competition assay of both L. crispatus and S. anginosus and calculating the ratio of L. crispatus/S. anginosus. A larger number indicates an increase in L. crispatus and/or a decrease in S. anginosus and a smaller number indicates a decrease in L. crispatus and/or an increase in S. anginosus.

The mark [10] stands for this setting: change vs start, background growth in CHL media subtracted, MRS agar.

For `OCc1ccccc1O[C@@H]1O[C@H](CO)[C@@H](O)[C@H](O)[C@H]1O` [Salicin], in [1], the “growth and fermentation vs positive control, Ef-1” value is reported as “++”; the “growth and fermentation vs positive control, Ef-2” value is “++”; the “growth and fermentation vs positive control, Ef-3” value is listed as “++”; the “growth and fermentation vs positive control, Ef-4” value is reported as “++”. The “growth and fermentation vs positive control, Lc-1” value in assay [2] (L. crispatus ATCC 33820, Culture Collection) is given as “++”. The “growth and fermentation vs positive control, Sa-1” value in assay [3] (S. anginosus ATCC 33397, Culture Collection) is on record as “++”. In addition, in assay [3], the “growth and fermentation vs positive control, Sa-2” value was “++”. Moreover, the “growth and fermentation vs positive control, Lg-1” value in assay [4] is listed as “++”. Further, the “growth and fermentation vs positive control, Lj-2” value in assay [5] (L. jensenii KC17-4347-1, Bladder) is reported as “++”. For the same molecule, in assay [6], the “overall outcome of the screening of Table 3, in words” value was “able to provide growth on the commensal bacterial species, but also provided growth on the pathogenic bacterial species”.

For `OC[C@@H](O)[C@@H](O[C@@H]1O[C@H](CO)[C@H](O)[C@H](O)[C@H]1O)[C@H](O)[C@@H](O)CO` [Lactitol], in assay [1], the “growth and fermentation vs positive control, Ef-1” value was “+”. Further, the “Sa-2 MRS Δ” value in assay [7] (setting [10]) was 0.75 Log CFU/mL and 0.69 Log CFU/mL. The “Sa-2 TSA Δ” value in assay [7] (change vs start, background growth in CHL media subtracted, TSA) was 0.58 Log CFU/mL and 0.52 Log CFU/mL. The “Sa-2 MRS end” value in [7] (competition Sa-2 vs Lc-3, 48 hours, anaerobic, enumerated on MRS agar) is 7.45 Log CFU/mL and 7.54 Log CFU/mL. The “Sa-2 TSA end” value in assay [7] (competition Sa-2 vs Lc-3, 48 hours, enumerated on TSA) was 7.43 Log CFU/mL and 7.65 Log CFU/mL. Further, the “Lc-3 MRS Δ” value in [8] (setting [10]) was 0.77 Log CFU/mL and 0.66 Log CFU/mL. Moreover, the “Lc-3 MRS end” value in [8] (competition Sa-2 vs Lc-3, 48 hours, enumerated on MRS agar) is 5.90 Log CFU/mL and 6.74 Log CFU/mL. Further, the “Therapeutic Effect (ratio of L. crispatus/S. anginosus)” value in assay [9] was 2.95E−02 (2×) and 1.23E−01 (2×). Moreover, the “overall outcome of the screening of Table 3, in words” value in assay [6] is “not able to provide growth for most, if not all, commensal and pathogenic bacterial species”. Also, the “growth of commensal bacterial species, in words” value in assay [6] (commensal species from culture collection, the bladder, or the vagina) was “did not show any positive growth”.

Regarding `OC[C@H]1O[C@H](O[C@H]2O[C@H](CO)[C@@H](O)[C@H](O)[C@H]2O)[C@H](O)[C@@H](O)[C@@H]1O` [D-Trehalose], in [1], the “growth and fermentation vs positive control, Ef-2” value was “++”; the “growth and fermentation vs positive control, Ef-3” value is recorded as “++”; the “growth and fermentation vs positive control, Ef-4” value is “++”. Besides, the “growth and fermentation vs positive control, Lc-3” value in assay [2] (L. crispatus KC18-1173-1, Bladder) is “++”. Moreover, the “growth and fermentation vs positive control, Lc-4” value in assay [2] (L. crispatus KC18-1174-1, Vagina) was “+”. For the same molecule, in assay [3], the “growth and fermentation vs positive control, Sa-2” value is “++”. Besides, the “growth and fermentation vs positive control, Lg-1” value in assay [4] is “++”. Moreover, the “growth and fermentation vs positive control, Lg-2” value in [4] (L. gasseri KC16-7171-1, Bladder) is “++”. The “growth and fermentation vs positive control, Lg-3” value in assay [4] (L. gasseri KC18-1131-2, Bladder) is “++”. In [5] (L. jensenii KC17-4297-18, Bladder), the “growth and fermentation vs positive control, Lj-1” value was “+”.
